Data published in patent US12091411B2, “IRAK degraders and uses thereof” (Kymera Therapeutics, Inc., priority 2022, dated 2024).
Where two headings read alike, the source gives them in different places.

Molecular target: T1, IRAK4 (Homo sapiens, UniProt Q9NWZ3)
T1 construct: Degradation of IRAK4 in OCI-LY10 was quantitatively measured using Meso Scale Discovery technology; endogenous in cells; host or cells: OCI-LY10
T1 sequence (Q9NWZ3 1-460): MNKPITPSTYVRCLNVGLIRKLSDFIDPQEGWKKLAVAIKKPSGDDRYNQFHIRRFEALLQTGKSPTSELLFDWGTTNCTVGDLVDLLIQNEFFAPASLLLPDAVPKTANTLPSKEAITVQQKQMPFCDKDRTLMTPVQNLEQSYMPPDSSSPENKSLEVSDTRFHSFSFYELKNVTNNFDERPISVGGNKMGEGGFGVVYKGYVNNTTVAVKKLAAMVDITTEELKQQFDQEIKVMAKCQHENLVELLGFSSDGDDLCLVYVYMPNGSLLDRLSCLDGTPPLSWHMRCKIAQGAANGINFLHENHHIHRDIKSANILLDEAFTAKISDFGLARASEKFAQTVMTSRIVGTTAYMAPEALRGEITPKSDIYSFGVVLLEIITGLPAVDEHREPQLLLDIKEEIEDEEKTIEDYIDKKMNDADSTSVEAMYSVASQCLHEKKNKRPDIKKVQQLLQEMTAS
Experiment: IRAK4 MSD Degradation in OCI-LY10
Type: cell-based
Details: OCI-LY10 cells, MSD
Experimental: Degradation of IRAK4 in OCI-LY10 was quantitatively measured using Meso Scale Discovery technology. […] Compounds were then added to the assay plates with a final top concentration of 1 to 10 μM in a 1:3 dilution series with total of 8 doses. The assay plates were then incubated for 4 to 24 hours at 37° C. under 5% CO2. […] To prepare MSD assay plates (Meso Scale Discovery Catalog number L15XA-3), the plates were coated with 2 μg/mL capture antibody (mouse Anti-IRAK4 antibody [2H9], ab119942) in PBS, at 40 μL/well. […] Cell lysates were then added to MSD assay plates and the plates were incubated at room temperature for 1 hour. The plates were then washed 3 times with 150 μL/well TBST buffer and 25 μL/well primary detection antibody (rabbit Anti-IRAK4 antibody [Y279], from Abcam. Catalog number ab32511, 1 μg/mL). The assay plates were then incubated at room temperature for 1 hour, washed 3 times with 150 μL/well TBST buffer and 25 μL/well secondary detection antibody, SULFO-TAG anti-rabbit antibody were added (anti-rabbit antibody from Meso Scale Discovery, Catalog number R32AB-1, 1 μg/mL). The assay plates were then incubated at room temperature for 1 hour, washed 3 times with 150 μL/well TBST buffer, and 150 μL/well MSD reading buffer (Meso Scale Discovery catalog number R92TC-2) was added. The plates were then analyzed by a MSD reader (Meso Scale Discovery, Model Quick Plex SQ 120). The data was then analyzed by software Prism 7.0 from GraphPad and the dose-depended IRAK4 degradation were fit using a three-parameter logistic equation to calculate DC50.
The letter codes for IRAK4 DC50 include: A (<0.01 μM); B (0.01 to <0.1 μM); C (0.1 to 0.2 μM); and D (>0.2 μM or not tested).

[1] = 4 hrs incubation, read-out: IRAK4 degradation in OCI-LY10 at 4 hrs: DC50
[2] = 24 hrs incubation, read-out: IRAK4 degradation in OCI-LY10 at 24 hrs: DC50

| SMILES | DC50 [1] [nM] | DC50 [2] [nM] |
| --- | --- | --- |
| Cn1c(=O)n(C2CCC(=O)NC2=O)c2cccc(C#CCN3CCN(C[C@H]4CC[C@H](n5cc(NC(=O)c6cnn7ccc(N8C[C@H]9C[C@@H]8CO9)nc67)c(Cl)n5)CC4)CC3)c21 (relative stereo) [I-117] | > 200 | 10 to 100 |
| Cn1c(=O)n([C@@H]2CCC(=O)NC2=O)c2cccc(C#CCN3CCN(C[C@H]4CC[C@H](n5cc(NC(=O)c6cnn7ccc(N8C[C@H]9C[C@@H]8CO9)nc67)c(C(F)F)n5)CC4)CC3)c21 (single isomer, unassigned) [I-71] | 10 to 100 | > 200 |
| C[C@H]1CN(C[C@H]2CC[C@H](n3cc(NC(=O)c4cnn5ccc(N6C[C@H]7C[C@@H]6CO7)nc45)c(C(F)F)n3)CC2)CC[C@@H]1OCC#Cc1cccc2c1n(C)c(=O)n2[C@@H]1CCC(=O)NC1=O (single isomer, unassigned) [I-73] | 10 to 100 | > 200 |
| Cn1c(=O)n(C2CCC(=O)NC2=O)c2cccc([C@@H]3CCN(C[C@H]4CC[C@H](n5cc6cc(NC(=O)c7cccc(C(F)(F)F)n7)ncc6n5)CC4)C[C@H]3F)c21 (single isomer, unassigned) [I-656] | > 200 | < 10 |
| Cn1c(=O)n(C2CCC(=O)NC2=O)c2cccc(C3CN(C4CCN([C@H]5CC[C@H](n6cc(NC(=O)c7cnn8ccc(N9C[C@H]%10C[C@@H]9CO%10)nc78)c(C(F)F)n6)CC5)CC4(F)F)C3)c21 (single isomer, unassigned) [I-736] | > 200 | < 10 |
| Cn1c(=O)n(C2CCC(=O)NC2=O)c2ccc(N3CC(CO[C@H]4CCN(C[C@H]5CC[C@H](n6cc(NC(=O)c7cnn8ccc(N9C[C@H]%10C[C@@H]9CO%10)nc78)c(C(F)F)n6)CC5)C[C@H]4F)C3)c(F)c21 (single isomer, unassigned) [I-738] | > 200 | < 10 |
| Cn1c(=O)n(C2CCC(=O)NC2=O)c2cccc([C@H]3CCN(C[C@H]4CC[C@H](n5cc6cc(NC(=O)c7cccc(C(F)(F)F)n7)ncc6n5)CC4)C[C@H]3F)c21 (single isomer, unassigned) [I-781] | > 200 | > 200 |
| COc1ccc2c(c1C#CCO[C@@H]1CCN(C[C@H]3CC[C@H](n4cc(NC(=O)c5cnn6ccc(N7C[C@H]8C[C@@H]7CO8)nc56)c(C(F)F)n4)CC3)C[C@@H]1F)n(C)c(=O)n2C1CCC(=O)NC1=O (stereo partly shown) [I-1] | 10 to 100 | > 200 |
| C[C@H]1CN(C[C@H]2CC[C@H](n3cc(NC(=O)c4cnn5ccc(N6C[C@H]7C[C@@H]6CO7)nc45)c(C(F)F)n3)CC2)CCN1CC#Cc1cccc2c1n(C)c(=O)n2C1CCC(=O)NC1=O (stereo partly shown) [I-9] | 10 to 100 | > 200 |
| O=C1CCN(c2cncc3cc(C#CCOC4CCN(C[C@H]5CC[C@H](n6cc(NC(=O)c7cnn8ccc(N9C[C@H]%10C[C@@H]9CO%10)nc78)c(C(F)F)n6)CC5)CC4)ccc23)C(=O)N1 [I-11] | > 200 | > 200 |
| Cn1c(=O)n(C2CCC(=O)NC2=O)c2cccc(C#CCOC3C[C@H]4CC[C@@H](C3)N4C[C@H]3CC[C@H](n4cc(NC(=O)c5cnn6ccc(N7C[C@H]8C[C@@H]7CO8)nc56)c(C(F)F)n4)CC3)c21 (stereo partly shown) [I-12] | > 200 | > 200 |
| CN(C[C@H]1CC[C@H](n2cc(NC(=O)c3cnn4cccnc34)c(C(F)F)n2)CC1)C1CCN(c2cccc3c(N4CCC(=O)NC4=O)cncc23)CC1 [I-13] | > 200 | > 200 |
| Cn1c(=O)n(C2CCC(=O)NC2=O)c2cccc(C#CCC3CCN(C[C@H]4CC[C@H](n5cc(NC(=O)c6cnn7ccc(N8C[C@H]9CC8CO9)nc67)c(C(F)F)n5)CC4)CC3)c21 (stereo partly shown) [I-15] | > 200 | > 200 |
| Cn1c(=O)n(C2CCC(=O)NC2=O)c2cccc(C#CC3CCCN(C[C@H]4CC[C@H](n5cc(NC(=O)c6cnn7ccc(N8C[C@H]9C[C@@H]8CO9)nc67)c(C(F)F)n5)CC4)C3)c21 (stereo partly shown) [I-17] | 10 to 100 | > 200 |

The remaining lines, values ahead:

| DC50 [1] [nM] | DC50 [2] [nM] | SMILES |
| --- | --- | --- |
| 10 to 100 | > 200 | Cn1c(=O)n(C2CCC(=O)NC2=O)c2cccc(C#CCN3CCN(C[C@H]4CC[C@H](n5cc(NC(=O)c6cnn7ccc(N8C[C@H]9C[C@@H]8CO9)nc67)c(C(F)(F)F)n5)CC4)CC3)c21 (relative stereo) [I-112] |
| < 10 | > 200 | Cn1c(=O)n(C2CCC(=O)NC2=O)c2cccc(CCCN3CCN(C[C@H]4CC[C@H](n5cc(NC(=O)c6cnn7ccc(N8C[C@H]9C[C@@H]8CO9)nc67)c(C(F)F)n5)CC4)CC3)c21 (relative stereo) [I-114] |
| 10 to 100 | > 200 | Cc1nn([C@H]2CC[C@H](CN3CCN(CC#Cc4cccc5c4n(C)c(=O)n5C4CCC(=O)NC4=O)CC3)CC2)cc1NC(=O)c1cnn2ccc(N3C[C@H]4C[C@@H]3CO4)nc12 (relative stereo) [I-115] |
| < 10 | > 200 | C[C@H]1CN(C[C@H]2CC[C@H](n3cc(NC(=O)c4cnn5ccc(N6C[C@H]7C[C@@H]6CO7)nc45)c(C(F)F)n3)CC2)CC[C@@H]1OCC#Cc1cccc2c1n(C)c(=O)n2[C@H]1CCC(=O)NC1=O (single isomer, unassigned) [I-67] |
| < 10 | > 200 | Cn1c(=O)n([C@H]2CCC(=O)NC2=O)c2cccc(C#CCN3CCN(C[C@H]4CC[C@H](n5cc(NC(=O)c6cnn7ccc(N8C[C@H]9C[C@@H]8CO9)nc67)c(C(F)F)n5)CC4)CC3)c21 (single isomer, unassigned) [I-72] |
| < 10 | > 200 | Cn1c(=O)n(C2CCC(=O)NC2=O)c2cccc(N3CCN(C4CCN([C@H]5CC[C@H](n6cc(NC(=O)c7cnn8ccc(N9C[C@H]%10C[C@@H]9CO%10)nc78)c(C(F)F)n6)CC5)CC4)CC3)c21 (single isomer, unassigned) [I-201] |
| < 10 | > 200 | Cn1c(=O)n(C2CCC(=O)NC2=O)c2cccc(N3CCN(C4CCN([C@H]5CC[C@@H](n6cc(NC(=O)c7cnn8ccc(N9C[C@H]%10C[C@@H]9CO%10)nc78)c(C(F)F)n6)CC5)CC4)CC3)c21 (single isomer, unassigned) [I-425] |
| < 10 | > 200 | COc1ccc2c(c1C#CCOC1CCN(C[C@H]3CC[C@H](n4cc(NC(=O)c5cnn6ccc(N7C[C@H]8C[C@@H]7CO8)nc56)c(C(F)F)n4)CC3)CC1)n(C)c(=O)n2C1CCC(=O)NC1=O (stereo partly shown) [I-2] |
| < 10 | > 200 | Cn1c(=O)n(C2CCC(=O)NC2=O)c2cccc([C@]34C[C@](COC5CCN(C[C@H]6CC[C@H](n7cc(NC(=O)c8cnn9ccc(N%10C[C@H]%11C[C@@H]%10CO%11)nc89)c(C(F)F)n7)CC6)CC5)(C3)C4)c21 (stereo partly shown) [I-3] |
| < 10 | > 200 | O=C1CCC(n2c(=O)n(C3CC3)c3c(C#CCN4CCN(C[C@H]5CC[C@H](n6cc(NC(=O)c7cnn8ccc(N9C[C@H]%10C[C@@H]9CO%10)nc78)c(C(F)F)n6)CC5)CC4)cccc32)C(=O)N1 (stereo partly shown) [I-4] |
| < 10 | > 200 | Cn1c(=O)n(C2CCC(=O)NC2=O)c2cccc(C#CCN3CCCN(C[C@H]4CC[C@H](n5cc(NC(=O)c6cnn7ccc(N8C[C@H]9C[C@@H]8CO9)nc67)c(C(F)F)n5)CC4)CC3)c21 (stereo partly shown) [I-5] |
| < 10 | > 200 | O=C1CCN(c2cncc3c2cccc3[C@H]2C[C@@H](CN3CCN(C[C@H]4CC[C@H](n5cc(NC(=O)c6cnn7ccc(N8C[C@H]9C[C@@H]8CO9)nc67)c(C(F)F)n5)CC4)CC3)C2)C(=O)N1 [I-6] |
| < 10 | > 200 | Cn1c(=O)n(C2CCC(=O)NC2=O)c2cccc([C@]34C[C@](CN5CCN(C[C@H]6CC[C@H](n7cc(NC(=O)c8cnn9ccc(N%10C[C@H]%11C[C@@H]%10CO%11)nc89)c(C(F)F)n7)CC6)CC5)(C3)C4)c21 (stereo partly shown) [I-8] |
| < 10 | > 200 | O=C1CCN(c2cncc3c(C#CCOC4CCN(C[C@H]5CC[C@H](n6cc(NC(=O)c7cnn8ccc(N9C[C@H]%10C[C@@H]9CO%10)nc78)c(C(F)F)n6)CC5)CC4)cccc23)C(=O)N1 [I-10] |
| < 10 | > 200 | Cn1c(=O)n(C2CCC(=O)NC2=O)c2cccc(C#CCCOC3CCN(C[C@H]4CC[C@H](n5cc(NC(=O)c6cnn7ccc(N8C[C@H]9C[C@@H]8CO9)nc67)c(C(F)F)n5)CC4)CC3)c21 (stereo partly shown) [I-16] |
